According to BigSolDB 2.1:

CP(=O)(c1ccccc1)c1ccccc1
Settings	solubility (mole fraction)
in benzene, 288.52 K	0.0439
in benzene, 293.56 K	0.0573
in benzene, 298.13 K	0.0698
in benzene, 303.21 K	0.0875
in benzene, 308.12 K	0.102
in benzene, 312.55 K	0.123
in benzene, 318.04 K	0.156
in benzene, 323.17 K	0.183
in ethyl acetate, 293.25 K	0.0415
in ethyl acetate, 298.46 K	0.0497
in ethyl acetate, 302.88 K	0.0618
in ethyl acetate, 307.97 K	0.0744
in ethyl acetate, 313.22 K	0.0885
in ethyl acetate, 317.25 K	0.104
in ethyl acetate, 322.14 K	0.128
in ethyl acetate, 326.93 K	0.15
in ethylbenzene, 293.35 K	0.0183
in ethylbenzene, 298.04 K	0.0224
in ethylbenzene, 303.12 K	0.0304
in ethylbenzene, 308.33 K	0.0393
in ethylbenzene, 312.8 K	0.0464
in ethylbenzene, 317.51 K	0.061
in ethylbenzene, 321.25 K	0.0719
in ethylbenzene, 326.39 K	0.0876
in m-xylene, 293.75 K	0.0129
in m-xylene, 298.16 K	0.0167
in m-xylene, 303.32 K	0.0216
in m-xylene, 307.41 K	0.0258
in m-xylene, 313 K	0.0332
in m-xylene, 317.53 K	0.0398
in m-xylene, 320.55 K	0.0453
in m-xylene, 326.39 K	0.0614
in o-xylene, 293.35 K	0.0281
in o-xylene, 298.08 K	0.0343
in o-xylene, 303.11 K	0.0406
in o-xylene, 308.23 K	0.0454
in o-xylene, 313.09 K	0.0525
in o-xylene, 317.05 K	0.0603
in o-xylene, 321.94 K	0.071
in o-xylene, 328.07 K	0.0821
in p-xylene, 293.65 K	0.0131
in p-xylene, 298.19 K	0.0175
in p-xylene, 303.31 K	0.0219
in p-xylene, 308.42 K	0.03
in p-xylene, 313.11 K	0.036
in p-xylene, 317.38 K	0.0442
in p-xylene, 320.55 K	0.0539
in p-xylene, 326.44 K	0.0679
in toluene, 293.35 K	0.0227
in toluene, 298.16 K	0.0287
in toluene, 303.08 K	0.0386
in toluene, 307.11 K	0.0498
in toluene, 312.12 K	0.065
in toluene, 316.4 K	0.0798
in toluene, 320.95 K	0.0979
in toluene, 326.54 K	0.135
